Measured values reported in patent US20020035061A1, “COMPOSITIONS AND METHODS FOR TREATING INFECTIONS USING CATIONIC PEPTIDES ALONE OR IN COMBINATION WITH ANTIBIOTICS” (priority 1996, published 2002).

System: bacterial isolates
Assay: microbe, parasite or virus in culture
Format: cell-based
Conditions: for MBI 26 + Teicoplanin: in combination with Teicoplanin

KWKSFIKKLTSAAKKVVTTAKPLISS [MBI 26]
Peptide MIC Alone (1. Amikacin, A. baumannii ABI001): 8 µg/mL | Peptide MIC Alone (1. Amikacin, A. baumannii ABI003): 8 µg/mL | Peptide MIC Alone (1. Amikacin, S. maltophilia SMA021): 32 µg/mL | Peptide MIC Alone (1. Amikacin, S. maltophilia SMA037): >128 µg/mL | Peptide MIC Alone (2. Ceftriaxone, A. baumannii ABI002): 8 µg/mL | Peptide MIC Alone (2. Ceftriaxone, A. baumannii ABI005): 2 µg/mL | Peptide MIC Alone (2. Ceftriaxone, B. cepacia BC003): >128 µg/mL | Peptide MIC Alone (2. Ceftriaxone, E. cloacae ECL014): 8 µg/mL | Peptide MIC Alone (2. Ceftriaxone, E. cloacae ECL015): 32 µg/mL | Peptide MIC Alone (2. Ceftriaxone, K. pneumoniae KP003): 16 µg/mL | Peptide MIC Alone (2. Ceftriaxone, P. aeruginosa PA008): 128 µg/mL | Peptide MIC Alone (2. Ceftriaxone, P. aeruginosa PA024): 128 µg/mL | Peptide MIC Alone (2. Ceftriaxone, S. aureus SA025 MRSA): 1 µg/mL | Peptide MIC Alone (2. Ceftriaxone, S. epidermidis SE007): 32 µg/mL | Peptide MIC Alone (2. Ceftriaxone, S. epidermidis SE012): 64 µg/mL | Peptide MIC Alone (2. Ceftriaxone, S. maltophilia SMA019): 4 µg/mL | Peptide MIC Alone (2. Ceftriaxone, S. maltophilia SMA020): 4 µg/mL | Peptide MIC Alone (3. Ciprofloxacin, A. calcoaceticus 1): >64 µg/mL | Peptide MIC Alone (3. Ciprofloxacin, A. calcoaceticus 6): >32 µg/mL | Peptide MIC Alone (3. Ciprofloxacin, E. cloacae 13): >128 µg/mL | Peptide MIC Alone (3. Ciprofloxacin, E. cloacae 15): >32 µg/mL | Peptide MIC Alone (3. Ciprofloxacin, E. cloacae 16): >32 µg/mL | Peptide MIC Alone (3. Ciprofloxacin, P. aeruginosa 23): >32 µg/mL | Peptide MIC Alone (3. Ciprofloxacin, P. aeruginosa 24): >32 µg/mL | Peptide MIC Alone (3. Ciprofloxacin, P. aeruginosa PA41): 128 µg/mL | Peptide MIC Alone (3. Ciprofloxacin, P. aeruginosa PA77): 128 µg/mL | Peptide MIC Alone (3. Ciprofloxacin, S. aureus SA11): 128 µg/mL | Peptide MIC Alone (3. Ciprofloxacin, S. maltophilia 34): >32 µg/mL | Peptide MIC Alone (3. Ciprofloxacin, S. maltophilia 35): >32 µg/mL | Peptide MIC Alone (4. Gentamicin, A. baumannii ABI001): 8 µg/mL | Peptide MIC Alone (4. Gentamicin, A. baumannii ABI002): 8 µg/mL | Peptide MIC Alone (4. Gentamicin, P. aeruginosa PA041): 64 µg/mL | Peptide MIC Alone (4. Gentamicin, S. maltophilia SMA016): >128 µg/mL | Peptide MIC Alone (4. Gentamicin, S. maltophilia SMA017): 16 µg/mL | Amikacin MIC + Peptide (A. baumannii ABI001): 8 µg/mL | Gentamicin MIC + Peptide (A. baumannii ABI001): 16 µg/mL | Peptide MIC + Amikacin (A. baumannii ABI001): 2 µg/mL | Peptide MIC + Gentamicin (A. baumannii ABI001): 2 µg/mL | Ceftriaxone MIC + Peptide (A. baumannii ABI002): 16 µg/mL | Gentamicin MIC + Peptide (A. baumannii ABI002): 0.5 µg/mL | Peptide MIC + Ceftriaxone (A. baumannii ABI002): 2 µg/mL | Peptide MIC + Gentamicin (A. baumannii ABI002): 4 µg/mL | Amikacin MIC + Peptide (A. baumannii ABI003): 2 µg/mL | Peptide MIC + Amikacin (A. baumannii ABI003): 2 µg/mL | Ceftriaxone MIC + Peptide (A. baumannii ABI005): 8 µg/mL | Peptide MIC + Ceftriaxone (A. baumannii ABI005): 0.125 µg/mL | Ciprofloxacin MIC + Peptide (A. calcoaceticus 1): 0.25 µg/mL | Peptide MIC + Ciprofloxacin (A. calcoaceticus 1): 1 µg/mL | Ciprofloxacin MIC + Peptide (A. calcoaceticus 6): 0.25 µg/mL | Peptide MIC + Ciprofloxacin (A. calcoaceticus 6): 16 µg/mL | Peptide MIC + Piperacillin (A. calcoaceticus 7): 8 µg/mL | Piperacillin MIC + Peptide (A. calcoaceticus 7): 4 µg/mL | Peptide MIC Alone (A. calcoaceticus 7, Piperacillin section): >32 µg/mL | Peptide MIC + Piperacillin (A. calcoaceticus 8): 8 µg/mL | Piperacillin MIC + Peptide (A. calcoaceticus 8): 4 µg/mL | Peptide MIC Alone (A. calcoaceticus 8, Piperacillin section): >32 µg/mL | Ceftriaxone MIC + Peptide (B. cepacia BC003): 8 µg/mL | Peptide MIC + Ceftriaxone (B. cepacia BC003): 0.125 µg/mL | Ciprofloxacin MIC + Peptide (E. cloacae 13): 0.25 µg/mL | Peptide MIC + Ciprofloxacin (E. cloacae 13): 4 µg/mL | Peptide MIC + Piperacillin (E. cloacae 13): 8 µg/mL | Piperacillin MIC + Peptide (E. cloacae 13): 4 µg/mL | Peptide MIC Alone (E. cloacae 13, Piperacillin section): >32 µg/mL | Ciprofloxacin MIC + Peptide (E. cloacae 15): 0.25 µg/mL | Peptide MIC + Ciprofloxacin (E. cloacae 15): 8 µg/mL | Ciprofloxacin MIC + Peptide (E. cloacae 16): 0.25 µg/mL | Peptide MIC + Ciprofloxacin (E. cloacae 16): 16 µg/mL | Ceftriaxone MIC + Peptide (E. cloacae ECL014): 32 µg/mL | Peptide MIC + Ceftriaxone (E. cloacae ECL014): 2 µg/mL | Ceftriaxone MIC + Peptide (E. cloacae ECL015): 4 µg/mL | Peptide MIC + Ceftriaxone (E. cloacae ECL015): 4 µg/mL | Mupirocin MIC + Peptide (E. coli ECO5): 30 µg/mL | Peptide MIC + Mupirocin (E. coli ECO5): 1 µg/mL | Peptide MIC Alone (E. coli ECO5, Mupirocin section): 8 µg/mL | Mupirocin MIC + Peptide (E. coli SBECO2): 30 µg/mL | Peptide MIC + Mupirocin (E. coli SBECO2): 1 µg/mL | Peptide MIC Alone (E. coli SBECO2, Mupirocin section): 8 µg/mL | MBI 26 Alone (E. faecalis 97040 VanB): 64 µg/mL | MBI 26 + Teicoplanin (E. faecalis 97040 VanB): 8 µg/mL | MBI 26 Alone (E. faecalis 97041 VanB): 64 µg/mL | MBI 26 + Teicoplanin (E. faecalis 97041 VanB): 8 µg/mL | MBI 26 Alone (E. faecalis 97042 VanB): 64 µg/mL | MBI 26 + Teicoplanin (E. faecalis 97042 VanB): 8 µg/mL | MBI 26 Alone (E. faecalis 97043 VanB): 64 µg/mL | MBI 26 + Teicoplanin (E. faecalis 97043 VanB): 8 µg/mL | Peptide MIC + Vancomycin (E. faecalis EFS005): 16 µg/mL | Peptide MIC Alone (E. faecalis EFS005): >128 µg/mL | Vancomycin MIC + Peptide (E. faecalis EFS005): 4 µg/mL | Peptide MIC + Vancomycin (E. faecalis EFS012): 1 µg/mL | Peptide MIC Alone (E. faecalis EFS012): 16 µg/mL | Vancomycin MIC + Peptide (E. faecalis EFS012): 2 µg/mL | Peptide MIC + Vancomycin (E. faecalis EFS013): 1 µg/mL | Peptide MIC Alone (E. faecalis EFS013): 16 µg/mL | Vancomycin MIC + Peptide (E. faecalis EFS013): 2 µg/mL | MBI 26 Alone (E. faecium 97001 VanB): 64 µg/mL | MBI 26 + Teicoplanin (E. faecium 97001 VanB): 4 µg/mL | MBI 26 Alone (E. faecium 97002 VanB): 64 µg/mL | MBI 26 + Teicoplanin (E. faecium 97002 VanB): 1 µg/mL | MBI 26 Alone (E. faecium 97003 VanB): 64 µg/mL | MBI 26 + Teicoplanin (E. faecium 97003 VanB): 1 µg/mL | MBI 26 Alone (E. faecium 97005 VanB): 64 µg/mL | MBI 26 + Teicoplanin (E. faecium 97005 VanB): 2 µg/mL | MBI 26 Alone (E. faecium 97006 VanB): 64 µg/mL | MBI 26 + Teicoplanin (E. faecium 97006 VanB): 4 µg/mL | MBI 26 Alone (E. faecium 97007 VanB): 64 µg/mL | MBI 26 + Teicoplanin (E. faecium 97007 VanB): 1 µg/mL | MBI 26 Alone (E. faecium 97008 VanB): 64 µg/mL | MBI 26 + Teicoplanin (E. faecium 97008 VanB): 4 µg/mL | MBI 26 Alone (E. faecium 97009 VanB): 32 µg/mL | MBI 26 + Teicoplanin (E. faecium 97009 VanB): 1 µg/mL | MBI 26 Alone (E. faecium 97010 VanB): 64 µg/mL | MBI 26 + Teicoplanin (E. faecium 97010 VanB): 4 µg/mL | MBI 26 Alone (E. faecium 97011 VanB): 64 µg/mL | MBI 26 + Teicoplanin (E. faecium 97011 VanB): 4 µg/mL | MBI 26 Alone (E. faecium 97012 VanB): 64 µg/mL | MBI 26 + Teicoplanin (E. faecium 97012 VanB): 4 µg/mL | MBI 26 Alone (E. faecium 97013 VanB): 64 µg/mL | MBI 26 + Teicoplanin (E. faecium 97013 VanB): 8 µg/mL | MBI 26 Alone (E. faecium 97014 VanB): 64 µg/mL | MBI 26 + Teicoplanin (E. faecium 97014 VanB): 4 µg/mL | MBI 26 Alone (E. faecium 97015 VanB): 64 µg/mL | MBI 26 + Teicoplanin (E. faecium 97015 VanB): 4 µg/mL | MBI 26 Alone (E. faecium 97016 VanB): 64 µg/mL | MBI 26 + Teicoplanin (E. faecium 97016 VanB): 4 µg/mL | Peptide MIC + Vancomycin (E. faecium EFM010): 8 µg/mL | Peptide MIC Alone (E. faecium EFM010): 32 µg/mL | Vancomycin MIC + Peptide (E. faecium EFM010): 2 µg/mL | Peptide MIC + Vancomycin (E. faecium EFM011): 8 µg/mL | Peptide MIC Alone (E. faecium EFM011): 32 µg/mL | Vancomycin MIC + Peptide (E. faecium EFM011): 2 µg/mL | Peptide MIC + Vancomycin (E. faecium EFM012): 16 µg/mL | Peptide MIC Alone (E. faecium EFM012): 64 µg/mL | Vancomycin MIC + Peptide (E. faecium EFM012): 2 µg/mL | Peptide MIC + Vancomycin (E. faecium EFM014): 8 µg/mL | Peptide MIC Alone (E. faecium EFM014): 32 µg/mL | Vancomycin MIC + Peptide (E. faecium EFM014): 4 µg/mL | Peptide MIC + Vancomycin (E. faecium EFM016): 4 µg/mL | Peptide MIC Alone (E. faecium EFM016): 8 µg/mL | Vancomycin MIC + Peptide (E. faecium EFM016): 1 µg/mL | Peptide MIC + Piperacillin (H. influenzae 1): 8 µg/mL | Piperacillin MIC + Peptide (H. influenzae 1): 32 µg/mL | Peptide MIC Alone (H. influenzae 1, Piperacillin section): >128 µg/mL | Peptide MIC + Piperacillin (H. influenzae 2): 2 µg/mL | Piperacillin MIC + Peptide (H. influenzae 2): 64 µg/mL | Peptide MIC Alone (H. influenzae 2, Piperacillin section): >128 µg/mL | Ceftriaxone MIC + Peptide (K. pneumoniae KP003): 4 µg/mL | Peptide MIC + Ceftriaxone (K. pneumoniae KP003): 1 µg/mL | Peptide MIC + Piperacillin (P. aeruginosa 7): 32 µg/mL | Piperacillin MIC + Peptide (P. aeruginosa 7): 32 µg/mL | Peptide MIC Alone (P. aeruginosa 7, Piperacillin section): >128 µg/mL | Ciprofloxacin MIC + Peptide (P. aeruginosa 23): 0.5 µg/mL | Peptide MIC + Ciprofloxacin (P. aeruginosa 23): 2 µg/mL | Peptide MIC + Piperacillin (P. aeruginosa 23): 32 µg/mL | Piperacillin MIC + Peptide (P. aeruginosa 23): 4 µg/mL | Peptide MIC Alone (P. aeruginosa 23, Piperacillin section): >64 µg/mL | Ciprofloxacin MIC + Peptide (P. aeruginosa 24): 0.5 µg/mL | Peptide MIC + Ciprofloxacin (P. aeruginosa 24): 2 µg/mL | Peptide MIC + Piperacillin (P. aeruginosa 28): 32 µg/mL | Piperacillin MIC + Peptide (P. aeruginosa 28): 16 µg/mL | Peptide MIC Alone (P. aeruginosa 28, Piperacillin section): >128 µg/mL | Peptide MIC + Piperacillin (P. aeruginosa 41): 4 µg/mL | Piperacillin MIC + Peptide (P. aeruginosa 41): 32 µg/mL | Peptide MIC Alone (P. aeruginosa 41, Piperacillin section): 128 µg/mL | Mupirocin MIC + Peptide (P. aeruginosa PA2): 10 µg/mL | Peptide MIC + Mupirocin (P. aeruginosa PA2): 64 µg/mL | Peptide MIC Alone (P. aeruginosa PA2, Mupirocin section): 128 µg/mL | Mupirocin MIC + Peptide (P. aeruginosa PA4): 100 µg/mL | Peptide MIC + Mupirocin (P. aeruginosa PA4): 32 µg/mL
